Experimental data: ChEMBL document CHEMBL1145562, “Substituted dipiperidine alcohols as potent CCR2 antagonists” (Bioorg Med Chem Lett, 2008)

Each compound was assayed against T1, C-C chemokine receptor type 2 (Homo sapiens, UniProt P41597) (assay: Binding affinity at human CCR2 receptor).
T1 sequence (P41597 whole entry): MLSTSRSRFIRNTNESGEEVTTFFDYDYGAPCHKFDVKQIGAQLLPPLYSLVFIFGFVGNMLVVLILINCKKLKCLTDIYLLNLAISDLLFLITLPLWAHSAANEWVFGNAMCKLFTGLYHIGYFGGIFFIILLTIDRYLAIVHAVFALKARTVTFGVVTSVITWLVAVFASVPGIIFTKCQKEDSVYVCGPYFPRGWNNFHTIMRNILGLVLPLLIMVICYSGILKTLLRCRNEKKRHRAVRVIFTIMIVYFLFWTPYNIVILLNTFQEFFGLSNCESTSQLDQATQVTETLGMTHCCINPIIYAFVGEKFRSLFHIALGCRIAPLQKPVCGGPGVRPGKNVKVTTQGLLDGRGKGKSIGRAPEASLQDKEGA
With `COC(=O)c1ccc2[nH]cc(C3CCN(C(CO)C4CCN(C(=O)/C=C/c5cc(F)c(F)c(F)c5)CC4)CC3)c2c1` (configuration not stated) the IC50 was 20 nM. `O=C(/C=C/c1cc(F)c(F)c(F)c1)N1CCC([C@@H](CO)N2CCC(c3c[nH]c4ccccc34)CC2)CC1` showed an IC50 of 2.4 nM. `CC(=O)Nc1ccc2[nH]cc(C3CCN(C(CO)C4CCN(C(=O)/C=C/c5cc(F)c(F)c(F)c5)CC4)CC3)c2c1` (configuration not stated) gave an IC50 of 2 nM. `O=C(O)c1ccc2[nH]cc(C3CCN(C(CO)C4CCN(C(=O)Nc5ccc(Cl)c(Cl)c5)CC4)CC3)c2c1` (configuration not stated) showed an IC50 of 10 nM. `O=C(/C=C/c1cc(F)c(F)c(F)c1)N1CCC(C(CO)N2CCC(c3c[nH]c4ccc(O)cc34)CC2)CC1` (configuration not stated) showed an IC50 of 1 nM. Compound `O=C(/C=C/c1ccc(F)c(Br)c1)N1CCC(C(CO)N2CCC(c3c[nH]c4ccccc34)CC2)CC1` (configuration not stated) has an IC50 of 2 nM. In the case of `CN(C)CC(C1CCN(C(=O)/C=C/c2cc(F)c(F)c(F)c2)CC1)N1CCC(c2c[nH]c3ccccc23)CC1` (configuration not stated), the IC50 is reported as 4800 nM. In the case of `COC(=O)c1ccc2[nH]cc(C3CCN(C(CO)C4CCN(C(=O)Nc5ccc(Cl)c(Cl)c5)CC4)CC3)c2c1` (configuration not stated), the IC50 is reported as 50 nM. `O=C(/C=C/c1cc(F)c(F)c(F)c1)N1CCC([C@H](CO)N2CCC(c3c[nH]c4ccccc34)CC2)CC1` gave an IC50 of 10 nM. `Nc1ccc2[nH]cc(C3CCN(C(CO)C4CCN(C(=O)/C=C/c5cc(F)c(F)c(F)c5)CC4)CC3)c2c1` (configuration not stated) gave an IC50 of 1 nM. Compound `O=C(/C=C/c1cccc(Br)c1)N1CCC(C(CO)N2CCC(c3c[nH]c4ccccc34)CC2)CC1` (configuration not stated) has an IC50 of 9 nM.

The compounds below were run against T1, C-C chemokine receptor type 2 (assay: Antagonist activity at CCR2 receptor expressed in THP1 cells assessed as inhibition of MCP-1-induced chemotaxis).
For `O=C(/C=C/c1cc(F)c(F)c(F)c1)N1CCC([C@@H](CO)N2CCC(c3c[nH]c4ccccc34)CC2)CC1`, the IC50 was 3.5 nM.
